For one data set, the target named is hM3Dq (Homo sapiens, UniProt P20309, A239G/Y149C). Kind of data set: Autoradiography: displacement of [3H]clozapine from hM3Dq in mouse brain sections. The format is binding. Details: 026220; host or cells: mouse brain, dopamine D1 receptor-expressing neurons (transgene). The note with it: hM3Dq and hM4Di; up to 10 nM. The text has this: (§1) Flash frozen tissue (both rodents and the monkey) was sectioned (20 µm) on a cryostat (Leica, Germany) and thaw mounted onto ethanol-washed glass slides. […] Slides were air dried and placed in a Hypercassette™ (Amersham Biosciences) and covered with a BAS-TR2025 Storage Phosphor Screen (FujiFilm, Japan). The slides were exposed to the screen for 5–7 days and imaged using a phosphor imager (Typhoon FLA 7000; GE Healthcare).

A further data set deals with endogenous binding sites. It counts as in vivo. The note with it: monkey. On the procedure:
(§2) All macaque studies were acquired dynamically on the Focus 220 PET scanner (Siemens Medical Solutions, Knoxville, TN). The Focus 220 is a dedicated pre-clinical scanner with a transaxial FOV of 19 cm and an axial FOV of 7.5 cm. Image resolution is <2 mm within the central 5 cm FOV.
(§3) After initial evaluation the monkey was sedated with ketamine (10 mg kg^−1) followed by ketoprofen (as an analgesic) and glycopyrrolate (for salvia reduction), all weight dependent IM injections. The monkey would then be placed in the supine position, intubated with a tracheal tube. Anesthesia was maintained by 1–3.5% isoflurane and oxygen, the monkey’s head was positioned and immobilized for optimal positioning of the brain and moved into the scanner. A 10-min transmission scan using a Co-57-point source for attenuation correction was performed. One iv was inserted, if possible, in the right arm and one in the right leg for injection of tracer and blocking agent. The monkey was always monitored while anesthetized. HR, BP, O2 saturation, RR, three lead ECG, rectal temperature was documented every 15 min.
Arterial blood sampling was acquired throughout the study using an indwelling femoral port. The first 2 min samples were collected every 15 s then at 3, 5, 10, 30, 60, 90, and 120 min post tracer injection. All scans were acquired for 120 min using list mode acquisition. […]
To determine the arterial input function for the radiotracers injected in rhesus monkeys radioligand concentrations in the arterial plasma were corrected by the unchanged parent fraction. […] The unchanged plasma parent fractions were determined by radio-HPLC on an X-terra® C18 column (10 µm, 7.8 mm × 300 mm, Waters Corp., Milford, MA), and eluted with MeOH:H2O:Et3N (80:20:0.1; by volume) at an isocratic flow rate of 4.0 mL min^−1. Eluates were monitored with an in-line flow-through NaI(Tl) scintillation detector (Bioscan). Data were stored and analyzed on a PC using the software “Bio-ChromeLite”. […] Plasma free fraction was determined according to our previous methods.

A further data set addresses T1, hM4Di (Homo sapiens, UniProt P08173, A203G/Y113C).
T1 sequence (P08173 1-479 Y113C/A203G): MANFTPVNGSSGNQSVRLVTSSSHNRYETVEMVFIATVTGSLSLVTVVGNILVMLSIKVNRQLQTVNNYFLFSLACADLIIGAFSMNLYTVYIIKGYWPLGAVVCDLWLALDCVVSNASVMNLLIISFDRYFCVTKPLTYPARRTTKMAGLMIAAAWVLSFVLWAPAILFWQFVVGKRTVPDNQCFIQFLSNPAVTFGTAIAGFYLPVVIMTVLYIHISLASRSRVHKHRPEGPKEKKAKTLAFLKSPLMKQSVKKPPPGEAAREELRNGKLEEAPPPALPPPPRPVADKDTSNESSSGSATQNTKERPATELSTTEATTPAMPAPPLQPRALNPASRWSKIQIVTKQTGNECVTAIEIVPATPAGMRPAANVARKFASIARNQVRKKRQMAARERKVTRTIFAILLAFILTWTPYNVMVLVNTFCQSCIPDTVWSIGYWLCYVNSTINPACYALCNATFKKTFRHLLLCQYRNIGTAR
As to the kind of experiment: [11C]clozapine PET occupancy in monkey expressing hM4Di in the amygdala. Details: expressed in transfected cells; host or cells: rhesus monkey (Macaca mulatta) right amygdala, lentivirus-transduced neurons. It counts as in vivo, rhesus monkey (Macaca mulatta). Here is the method: Lentivirus expressing an hM4Di-CFP fusion protein under an hSyn promoter[11] with a titer of >10^9 infectious particles was loaded into a 100 µL glass syringe (Hamilton Co., MA). The 31-gauge needle of the syringe was sheathed with a silica capillary (450 µm OD) to create a step 1 mm from the base of the aperture. The syringe was mounted in a Nanomite pump (Harvard Apparatus, Cambridge, MA). The needle was lowered through the incision in the dura mater to each of the pre-calculated target sites and 10 or 20 µL was infused at a rate of 1 µL min^−1. Each monkey received a total of between 10 and 12 injections (for a total injection volume of 120–240 µL). Post-infusion, the needle was left in situ for 10 min after each injection to allow pressure from the infusate to dissipate. The needle was then slowly removed. At the completion of the injection series the soft tissues were sutured together in anatomical layers.
as §2, §3
Arterial blood sampling was acquired throughout the study using an indwelling femoral port. The first 2 min samples were collected every 15 s then at 3, 5, 10, 30, 60, 90, and 120 min post tracer injection. All scans were acquired for 120 min using list mode acquisition.
Scan data were histogrammed into 33 frames (6 × 30 s, 3 × 1 min, 2 × 2 min, and 22 × 5 min). Reconstruction was performed by Filtered Back Projection with scatter correction. After completion of the last study of the day, isoflurane was cut off. The monkey was gradually awakened, moved to the housing facility and fully recovered.

A further data set deals with WT mice. As to the kind of experiment: [18F]FDG PET metabolic mapping in WT mice. It counts as in vivo, mouse. On the procedure: Mice (D1-hM3Dq, D1-hM4Di or WT littermates, see above) were habituated to experimenter handling and fasted 16 h before the experiment. On the day of the experiment, mice received an IP injection of vehicle (1 ml kg^−1) and were placed back into their home cages. Ten minutes later, mice were injected (IP) with 11 MBq of 2-deoxy-2-[^18F]fluoro-D-glucose (FDG, Cardinal Health) and placed back into their home cages. After 30 min, mice were anesthetized with 1.5% isoflurane, placed on a custom-made bed of a nanoScan small animal PET/CT scanner (Mediso Medical Imaging Systems) and scanned for 20 min on a static acquisition protocol, followed by a CT scan. […] Voxel-based repeated measures with Student’s t test comparing baseline to drug were performed, and the resulting parametric images were filtered for statistically significant (p < 0.05) clusters larger than 100 contiguous voxels. All statistical parametric mapping analyses were performed using Matlab R2016 (Mathworks) and SPM12 (University College London).

Data set [1] concerns endogenous clozapine-binding sites. As to the kind of experiment: Autoradiography: displacement of [3H]clozapine in WT / non-DREADD mouse brain tissue. The following applies: individual values.
Text: as §1
(In general: In a radioligand displacement assay an active substance lowers the binding of a labelled ligand.)

Molecules are shown by their SMILES. Values joined by “and” are separate entries in the source; they are usually repeats but may differ in a detail not shown here. Identical values can stand only once.

Chain of hM3Dq (P20309 whole entry Y149C/A239G): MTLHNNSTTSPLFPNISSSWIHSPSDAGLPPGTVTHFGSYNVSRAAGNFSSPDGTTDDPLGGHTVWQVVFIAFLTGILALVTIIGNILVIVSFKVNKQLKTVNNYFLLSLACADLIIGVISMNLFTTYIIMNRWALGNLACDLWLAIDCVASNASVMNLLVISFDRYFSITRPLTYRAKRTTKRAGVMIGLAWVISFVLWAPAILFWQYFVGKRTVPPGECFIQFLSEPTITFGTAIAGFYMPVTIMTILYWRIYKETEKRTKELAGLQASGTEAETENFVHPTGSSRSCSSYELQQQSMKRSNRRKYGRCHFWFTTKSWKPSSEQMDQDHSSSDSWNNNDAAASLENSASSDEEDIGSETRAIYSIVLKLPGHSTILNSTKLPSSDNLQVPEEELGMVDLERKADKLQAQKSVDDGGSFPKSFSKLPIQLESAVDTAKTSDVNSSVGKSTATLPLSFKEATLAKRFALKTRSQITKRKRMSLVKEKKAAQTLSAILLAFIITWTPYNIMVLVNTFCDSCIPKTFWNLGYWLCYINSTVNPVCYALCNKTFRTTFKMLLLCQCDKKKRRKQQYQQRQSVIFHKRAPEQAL

Turning to `CCN1CCN(C2=Nc3cc(Cl)ccc3Nc3c(F)cccc32)CC1` [JHU37160, 8-Chloro-11-(4-ethylpiperazin-1-yl)-4-fluoro-5H-dibenzo[b,e][1,4]diazepine], the “in situ [3H]clozapine displacement in brain tissue from WT and D1-DREADD mice” value at hM3Dq was “selective [^3H]clozapine displacement from DREADDs and not from other clozapine-binding sites”. The “[11C]clozapine binding after drug, L_Amygdala” value in the data set on endogenous binding sites (0.1 mg kg-1) is reported as 0.2865. In the data set on endogenous binding sites (0.1 mg kg-1), the “[11C]clozapine binding after drug, PFC” value amounted to 0.3429. On hM4Di (0.1 mg kg-1 (lesser extent 0.01 mg kg-1)), the “[11C]clozapine displacement at hM4Di expressed in the amygdala” value is “produced [^11C]clozapine DREADD displacement at hM4Di”. Further, the “[11C]clozapine binding after drug, R_Amygdala” value at hM4Di (0.1 mg kg-1, hM4Di-expressing region) was determined as 0.6176. Moreover, the “brain metabolic activity ([18F]FDG)” value is given as “no significant brain metabolic changes” in the data set on WT mice (0.1 mg/kg) and “did not show any significant changes in brain metabolic activity” with WT mice (0.1 mg/kg, listed as J60, 0.1 mg/kg). The “[3H]CLZ binding in mouse brain sections, WT” value was 106.379 and 101.292 and 102.926 and 122.941 and 108.508 and 97.311 in data set [1] (competitor concentration 0.001, listed as J60); 120.43 and 105.789 and 111.318 and 118.633 and 118.689 and 124.215 in data set [1] (competitor concentration 0.01, listed as J60); 55.5737 and 82.7293 and 46.5386 and 44.7797 and 54.5308 and 62.9299 in data set [1] (competitor concentration 1, listed as J60).

Take `c1ccc2c(c1)N=C(N1CCNCC1)c1ccccc1N2` [C21]: the off-target effects entry in the data set on endogenous binding sites (10 mg/kg) is “extensive displacement of [^11C]clozapine binding at endogenous binding sites and non-specific effects”. Also, on hM4Di (1 mg/kg IV), the “in vivo DREADD occupancy” value is on record as “no measurable occupancy”. Besides, the hM4Di occupancy on hM4Di (10 mg/kg) is reported as ~ 50%. Besides, the “brain metabolic activity ([18F]FDG)” value in the data set on WT mice (1 mg/kg IP, 1 mg/kg) is recorded as “significant changes in brain metabolic activity”; in the data set with WT mice (1 mg/kg IP, listed as Compound 21, 1 mg/kg) it was “decreased metabolic activity of multiple networks”.

As to `CCN1CCN(C2=Nc3cc(Cl)ccc3Nc3cccc(F)c32)CC1` [JHU37152, 8-Chloro-11-(4-ethylpiperazin-1-yl)-1-fluoro-5H-dibenzo[b,e][1,4]diazepine], at hM3Dq, the “in situ [3H]clozapine displacement in brain tissue from WT and D1-DREADD mice” value is “selective [^3H]clozapine displacement from DREADDs and not from other clozapine-binding sites”. In addition, the “[3H]CLZ binding in mouse brain sections, WT” value in data set [1] (competitor concentration 0.001, listed as J52) was 119.578 and 91.3526 and 103.192 and 105.979 and 100.87 and 101.941; in data set [1] (competitor concentration 0.01, listed as J52) it was 85.3632 and 98.6721 and 100.487 and 96.5233 and 115.016 and 88.1843; in data set [1] (competitor concentration 1, listed as J52) it was 68.3087 and 51.6943 and 71.7816 and 75.1729 and 78.8993 and 70.8806.

Source of the values: paper PMC6788984, “High-potency ligands for DREADD imaging and activation in rodents and monkeys” (Nature Communications, 2019).
